The source of these data is patent US20130196927A1, “Smac Mimetic Therapy” (priority 2012, published 2013).

This experiment concerns the target T1, GFP-tagged cIAP-2 (Homo sapiens, UniProt Q13489).
T1 construct: expressed in transfected cells
Kind of experiment: GFP-tagged cIAP-2 degradation assay (loss of GFP signal). Format: cell-based. To be noted: GFP-cIAP expressing melanoma cell line A375, treatment for two hours; read-out: IC50 for GFP-tagged cIAP-2 degradation. From the text: To evaluate the Smac-mimetic activity in cancer cell lines, we have developed intra-cellular green fluorescence protein (GFP)-tagged cIAP-1 and GFP-tagged cIAP-2 assays. […].

T1 sequence (Q13489 whole entry): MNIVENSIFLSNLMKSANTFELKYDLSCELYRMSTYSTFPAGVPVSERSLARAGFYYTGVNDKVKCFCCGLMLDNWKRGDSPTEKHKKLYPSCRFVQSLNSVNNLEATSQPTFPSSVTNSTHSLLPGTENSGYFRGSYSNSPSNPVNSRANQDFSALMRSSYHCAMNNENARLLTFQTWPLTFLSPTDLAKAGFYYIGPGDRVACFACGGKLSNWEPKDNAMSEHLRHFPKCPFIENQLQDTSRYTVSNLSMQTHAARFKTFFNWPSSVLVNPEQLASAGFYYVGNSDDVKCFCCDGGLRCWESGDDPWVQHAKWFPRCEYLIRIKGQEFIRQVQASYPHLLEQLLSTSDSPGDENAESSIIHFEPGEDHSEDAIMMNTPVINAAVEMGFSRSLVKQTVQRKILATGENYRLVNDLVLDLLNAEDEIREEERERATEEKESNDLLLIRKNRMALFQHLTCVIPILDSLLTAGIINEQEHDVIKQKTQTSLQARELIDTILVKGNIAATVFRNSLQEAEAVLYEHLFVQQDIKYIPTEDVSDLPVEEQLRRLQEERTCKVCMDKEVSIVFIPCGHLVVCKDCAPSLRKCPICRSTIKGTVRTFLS

In the case of `CC[C@H](NC(=O)[C@H](C)NC)C(=O)N1C[C@@H](O)C[C@H]1Cc1c(-c2[nH]c3cc(F)ccc3c2C[C@@H]2C[C@H](O)CN2C(=O)[C@H](CC)NC(=O)[C@H](C)NC)[nH]c2cc(F)ccc12` [Compound 15, birinapant], the DC50 stood at 150 nM.
